Source: PMC13266999, “Designing Antibiotics with Inherent Resistance to Efflux as a Strategy to Revive Discovery against Multidrug-Resistant Pathogens” (Journal of Medicinal Chemistry, 2026)
≈ marks a conversion by molar mass, not a printed value. Where “and” joins values, the source holds several entries; their conditions need not be identical. Equal values may be shown once. Read-outs that look alike come from different tables or passages of the source.

Legend:
[1] = tested on: S. pyogenes; experiment: MIC (microbroth dilution); format: cell-based, Streptococcus pyogenes; conditions: for MIC: Streptococcus pyogenes
Protocol: (§1) All bacteria were maintained on tryptic soy agar (TSA), except Streptococcus spp., which were maintained on Columbia agar plates containing 5% horse blood. All bacterial assays were carried out in tryptic soy broth (TSB), except for Streptococcus spp. which were grown in cation-adjusted Mueller Hinton broth containing 2.5% lysed horse blood. Bacteria were grown to stationary phase in liquid culture overnight, with shaking at 200 rpm, before being back diluted to the relevant starting concentration for each assay below. MICs were measured by the microbroth dilution method. […] Absorbance at OD600 was read on a CLARIOstar spectrophotometer (BMG Labtech) and the MIC was defined as the minimum concentration of compound where no visible growth was detected. The compounds were prepared as a DMSO stock and equivalent concentrations of DMSO had no effect on bacterial growth. MICs were also performed in the presence of the outer membrane permeator, polymyxin b nonapeptide (PMBN) following the same MIC method but with the following variation. The 2-fold dilution series of compound was prepared as above, then 50 μL of PMBN at a final concentration of 30 μg/mL was added to relevant wells, while 50 μL/well of blank media was added to the remaining wells. Bacteria were then added at 50 μL/well for a starting concentration as above. Thirty μg/mL of PMBN had no effect on bacterial growth. The MICs were read and defined as above. All animal procedures were performed by the contract research organization Pharmacology Discovery Services Taiwan in accordance with the Guide for the Care and Use of Laboratory Animals. The procedures were approved by the Institutional Ethics Committee of Pharmacology Discovery Services Taiwan, Ltd. (approval no. AB127662), in compliance with animal welfare legislation in Taiwan.

[2] = tested on: S. agalactiae; experiment: MIC (microbroth dilution); format: cell-based, Streptococcus agalactiae; conditions: for MIC: Streptococcus agalactiae
Protocol: as §1

[3] = target: T1, 5-HT1B (Rattus norvegicus, UniProt P28564); experiment: SafetyScreen44; conditions: antagonist radioligand, specific binding, 1.0E-05 M
T1 construct: purchased Eurofins (SafetyScreen44)
Protocol: (§2) Off-target pharmacology was evaluated using the Eurofins SafetyScreen44 in vitro panel. […] Binding assays were performed using radioligand displacement, and enzyme or uptake assays measured inhibition of control activity using validated detection methods (scintillation counting, fluorimetry or photometry). Responses were expressed as percent inhibition of control binding or activity. Based on Eurofins interpretation guidelines, effects ≥50% were considered significant, effects between 25% and 50% weak to moderate, and effects <25% were not considered biologically relevant.

[4] = target: T2, 5-HT3 (h) (Homo sapiens, UniProt P46098); experiment: SafetyScreen44; conditions: antagonist radioligand, specific binding, 1.0E-05 M
T2 construct: purchased Eurofins (SafetyScreen44)
Protocol: as §2

[5] = target: T3, D1 (h) (Homo sapiens, UniProt P21728); experiment: SafetyScreen44; conditions: antagonist radioligand, specific binding, 1.0E-05 M
T3 construct: purchased Eurofins (SafetyScreen44)
Protocol: as §2

[6] = target: T4, ETA (h) (Homo sapiens, UniProt P25101); experiment: SafetyScreen44; conditions: agonist radioligand, specific binding, 1.0E-05 M
T4 construct: purchased Eurofins (SafetyScreen44)
Protocol: as §2

[7] = target: T5, H1 (h) (Homo sapiens, UniProt P35367); experiment: SafetyScreen44; conditions: antagonist radioligand, specific binding, 1.0E-05 M
T5 construct: purchased Eurofins (SafetyScreen44)
Protocol: as §2

[8] = target: T6, M3 (h) (Homo sapiens, UniProt P20309); experiment: SafetyScreen44; conditions: antagonist radioligand, specific binding, 1.0E-05 M
T6 construct: purchased Eurofins (SafetyScreen44)
Protocol: as §2

[9] = target: T7, MAO-A (Rattus norvegicus, UniProt P21396); experiment: SafetyScreen44; conditions: antagonist radioligand, specific binding, 1.0E-05 M
T7 construct: purchased Eurofins (SafetyScreen44)
Protocol: as §2

[10] = tested on: Na+ channel (site 2); experiment: SafetyScreen44; conditions: antagonist radioligand, specific binding, 1.0E-05 M
Protocol: as §2

[11] = target: T8, V1a (h) (Homo sapiens, UniProt P37288); experiment: SafetyScreen44; conditions: agonist radioligand, specific binding, 1.0E-05 M
T8 construct: purchased Eurofins (SafetyScreen44)
Protocol: as §2

[12] = target: T9, delta (DOP) (h) (Homo sapiens, UniProt P41143); experiment: SafetyScreen44; conditions: agonist radioligand, specific binding, 1.0E-05 M
T9 construct: purchased Eurofins (SafetyScreen44)
Protocol: as §2

[13] = target: T10, kappa (KOP) (Rattus norvegicus, UniProt P34975); experiment: SafetyScreen44; conditions: agonist radioligand, specific binding, 1.0E-05 M
T10 construct: purchased Eurofins (SafetyScreen44)
Protocol: as §2

[14] = tested on: AR (h); experiment: SafetyScreen44; parameters: species or system human; conditions: agonist radioligand, specific binding, 1.0E-05 M
Protocol: as §2

[15] = tested on: SafetyScreen44 targets; experiment: SafetyScreen44 panel, remaining targets; format: binding, human; conditions: 10 μM
Protocol: as §2

[16] = tested on: CYP3A; experiment: CYP inhibition; conditions: HLM; for inhibition at 10 µM: human, human liver microsomes, CYP3A inhibition
Protocol: Cytochrome P450 inhibition was assessed in vitro using human recombinant enzymes in microsomal preparations. […] Enzyme activity was quantified by monitoring formation of substrate-specific metabolites, and percent inhibition was calculated relative to vehicle control.

[17] = Murine thigh infection model; conditions: oral 50 mg/kg at 2, 8, and 14 h postinfection, at 26 h
[18] = probe midazolam, midazolam substrate
[19] = probe testosterone, testosterone substrate

T10 sequence (P34975 whole entry): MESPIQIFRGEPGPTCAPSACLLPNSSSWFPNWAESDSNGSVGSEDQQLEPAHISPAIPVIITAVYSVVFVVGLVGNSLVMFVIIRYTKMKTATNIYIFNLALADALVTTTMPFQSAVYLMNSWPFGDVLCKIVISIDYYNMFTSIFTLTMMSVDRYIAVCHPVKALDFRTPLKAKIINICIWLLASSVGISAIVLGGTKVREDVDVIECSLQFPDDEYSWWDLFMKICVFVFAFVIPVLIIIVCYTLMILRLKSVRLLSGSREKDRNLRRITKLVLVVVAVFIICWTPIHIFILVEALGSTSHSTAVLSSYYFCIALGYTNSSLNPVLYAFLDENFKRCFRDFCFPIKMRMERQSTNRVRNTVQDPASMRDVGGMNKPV
T8 sequence (P37288 whole entry): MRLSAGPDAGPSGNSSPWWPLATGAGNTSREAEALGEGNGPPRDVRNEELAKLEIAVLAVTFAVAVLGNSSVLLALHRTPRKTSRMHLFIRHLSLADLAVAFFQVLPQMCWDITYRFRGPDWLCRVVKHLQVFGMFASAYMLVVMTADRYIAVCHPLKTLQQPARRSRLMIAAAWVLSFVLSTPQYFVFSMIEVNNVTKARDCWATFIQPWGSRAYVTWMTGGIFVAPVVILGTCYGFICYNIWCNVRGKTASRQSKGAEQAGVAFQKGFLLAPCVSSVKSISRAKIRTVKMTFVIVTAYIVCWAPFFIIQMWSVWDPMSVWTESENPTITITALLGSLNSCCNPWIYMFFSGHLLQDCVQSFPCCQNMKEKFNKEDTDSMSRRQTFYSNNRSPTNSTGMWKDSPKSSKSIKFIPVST
T1 sequence (P28564 whole entry): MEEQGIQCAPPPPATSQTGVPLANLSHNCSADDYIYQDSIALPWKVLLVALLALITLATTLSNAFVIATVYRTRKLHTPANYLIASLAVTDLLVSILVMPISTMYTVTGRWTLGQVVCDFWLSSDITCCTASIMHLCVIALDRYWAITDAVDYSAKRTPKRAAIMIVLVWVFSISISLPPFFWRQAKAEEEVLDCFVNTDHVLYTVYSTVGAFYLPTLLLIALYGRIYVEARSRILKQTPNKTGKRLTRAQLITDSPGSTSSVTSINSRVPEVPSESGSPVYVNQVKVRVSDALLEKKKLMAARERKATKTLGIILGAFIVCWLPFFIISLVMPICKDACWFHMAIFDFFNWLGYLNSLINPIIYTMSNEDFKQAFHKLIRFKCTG
T5 sequence (P35367 whole entry): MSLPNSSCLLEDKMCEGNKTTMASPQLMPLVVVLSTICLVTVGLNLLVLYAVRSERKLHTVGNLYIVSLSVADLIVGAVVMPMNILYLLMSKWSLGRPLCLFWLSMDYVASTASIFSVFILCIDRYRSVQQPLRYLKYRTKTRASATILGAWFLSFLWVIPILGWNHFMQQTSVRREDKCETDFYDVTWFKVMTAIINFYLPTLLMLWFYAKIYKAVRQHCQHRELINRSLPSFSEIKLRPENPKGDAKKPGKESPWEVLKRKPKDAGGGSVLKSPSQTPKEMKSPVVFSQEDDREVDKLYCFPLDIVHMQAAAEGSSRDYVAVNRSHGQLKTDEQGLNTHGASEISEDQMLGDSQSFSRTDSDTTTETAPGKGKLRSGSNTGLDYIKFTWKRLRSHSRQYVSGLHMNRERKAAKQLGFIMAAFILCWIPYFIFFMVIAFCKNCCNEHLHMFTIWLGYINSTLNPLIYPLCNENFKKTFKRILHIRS
T6 sequence (P20309 whole entry): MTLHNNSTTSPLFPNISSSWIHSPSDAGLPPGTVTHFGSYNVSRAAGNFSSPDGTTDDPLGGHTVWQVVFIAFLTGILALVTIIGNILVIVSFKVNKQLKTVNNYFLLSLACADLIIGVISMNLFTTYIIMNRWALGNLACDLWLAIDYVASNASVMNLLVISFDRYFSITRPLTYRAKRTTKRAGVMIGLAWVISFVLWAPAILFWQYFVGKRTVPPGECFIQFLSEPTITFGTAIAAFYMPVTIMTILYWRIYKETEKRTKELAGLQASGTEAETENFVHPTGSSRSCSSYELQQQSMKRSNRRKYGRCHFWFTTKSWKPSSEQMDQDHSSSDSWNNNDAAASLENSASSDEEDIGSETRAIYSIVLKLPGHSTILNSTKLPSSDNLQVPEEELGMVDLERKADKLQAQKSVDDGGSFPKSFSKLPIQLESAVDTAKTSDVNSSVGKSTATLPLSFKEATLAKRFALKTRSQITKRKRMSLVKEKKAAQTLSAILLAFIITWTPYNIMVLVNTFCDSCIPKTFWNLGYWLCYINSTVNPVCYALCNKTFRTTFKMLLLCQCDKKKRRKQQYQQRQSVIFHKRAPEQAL
T3 sequence (P21728 whole entry): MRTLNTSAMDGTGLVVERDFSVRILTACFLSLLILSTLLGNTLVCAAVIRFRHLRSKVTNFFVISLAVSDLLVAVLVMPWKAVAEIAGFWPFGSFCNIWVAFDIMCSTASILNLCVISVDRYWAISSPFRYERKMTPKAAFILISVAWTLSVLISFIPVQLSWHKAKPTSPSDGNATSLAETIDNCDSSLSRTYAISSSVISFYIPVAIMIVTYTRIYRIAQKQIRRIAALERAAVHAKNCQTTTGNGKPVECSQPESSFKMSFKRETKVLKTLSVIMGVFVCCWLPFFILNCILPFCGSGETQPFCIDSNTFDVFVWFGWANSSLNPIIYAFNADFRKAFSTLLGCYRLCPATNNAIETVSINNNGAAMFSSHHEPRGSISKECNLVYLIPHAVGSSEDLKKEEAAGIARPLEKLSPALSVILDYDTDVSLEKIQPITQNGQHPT
T4 sequence (P25101 21-427): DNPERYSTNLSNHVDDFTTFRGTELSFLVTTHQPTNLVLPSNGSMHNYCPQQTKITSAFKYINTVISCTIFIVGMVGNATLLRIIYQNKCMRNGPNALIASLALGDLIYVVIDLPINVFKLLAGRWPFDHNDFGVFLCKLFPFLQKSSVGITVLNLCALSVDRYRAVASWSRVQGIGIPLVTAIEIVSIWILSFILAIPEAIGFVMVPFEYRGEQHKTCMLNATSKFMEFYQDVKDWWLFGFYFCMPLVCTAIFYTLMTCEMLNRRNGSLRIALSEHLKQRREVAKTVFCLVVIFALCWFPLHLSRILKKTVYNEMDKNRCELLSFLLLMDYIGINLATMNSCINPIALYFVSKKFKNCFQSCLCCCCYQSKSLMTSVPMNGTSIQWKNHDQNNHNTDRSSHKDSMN
T2 sequence (P46098 24-478): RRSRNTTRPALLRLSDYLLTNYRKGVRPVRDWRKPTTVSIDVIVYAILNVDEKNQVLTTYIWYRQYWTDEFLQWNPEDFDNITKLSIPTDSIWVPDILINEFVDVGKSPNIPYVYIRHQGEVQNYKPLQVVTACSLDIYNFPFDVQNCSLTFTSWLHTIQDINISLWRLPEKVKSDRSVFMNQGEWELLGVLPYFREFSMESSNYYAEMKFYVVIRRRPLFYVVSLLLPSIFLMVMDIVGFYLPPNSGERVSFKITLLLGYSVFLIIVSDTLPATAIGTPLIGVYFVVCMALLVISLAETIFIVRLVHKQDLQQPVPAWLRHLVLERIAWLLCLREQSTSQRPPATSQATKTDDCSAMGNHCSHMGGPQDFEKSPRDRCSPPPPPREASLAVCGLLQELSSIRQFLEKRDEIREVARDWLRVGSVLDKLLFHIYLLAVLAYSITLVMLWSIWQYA
T7 sequence (P21396 whole entry): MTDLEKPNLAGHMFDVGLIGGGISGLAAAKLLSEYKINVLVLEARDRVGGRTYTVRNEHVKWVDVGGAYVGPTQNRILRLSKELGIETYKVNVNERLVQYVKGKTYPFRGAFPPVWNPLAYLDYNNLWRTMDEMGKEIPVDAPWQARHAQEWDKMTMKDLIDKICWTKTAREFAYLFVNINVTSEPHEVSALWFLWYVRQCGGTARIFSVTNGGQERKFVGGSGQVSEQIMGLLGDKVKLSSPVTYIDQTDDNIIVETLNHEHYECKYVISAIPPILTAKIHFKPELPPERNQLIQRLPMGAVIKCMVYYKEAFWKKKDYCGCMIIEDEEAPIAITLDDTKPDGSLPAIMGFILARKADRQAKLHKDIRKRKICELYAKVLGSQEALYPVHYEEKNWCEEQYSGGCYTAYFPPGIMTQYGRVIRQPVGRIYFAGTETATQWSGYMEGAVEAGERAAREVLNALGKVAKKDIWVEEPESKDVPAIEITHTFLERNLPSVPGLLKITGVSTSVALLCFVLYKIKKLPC
T9 sequence (P41143 whole entry): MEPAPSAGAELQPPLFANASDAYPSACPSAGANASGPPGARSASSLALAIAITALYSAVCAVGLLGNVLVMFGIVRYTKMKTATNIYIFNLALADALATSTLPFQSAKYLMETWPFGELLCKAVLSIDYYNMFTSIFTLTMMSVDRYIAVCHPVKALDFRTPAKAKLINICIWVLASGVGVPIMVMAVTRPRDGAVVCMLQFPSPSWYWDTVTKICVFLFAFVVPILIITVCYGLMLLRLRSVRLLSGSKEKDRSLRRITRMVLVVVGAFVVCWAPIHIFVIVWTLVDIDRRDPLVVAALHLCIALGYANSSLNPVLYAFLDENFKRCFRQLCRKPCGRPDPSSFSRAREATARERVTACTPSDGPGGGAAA

C[C@H]1COc2c(N3CC[C@@H](Nc4ncccn4)C3)c(F)cc3c(=O)c(C(=O)O)cn1c23 [Compound 46, (S)-9-Fluoro-3-methyl-7-oxo-10-((R)-3-(pyrimidin-2-ylamino)pyrrolidin-1-yl)-2,3-dihydro-7H-[1,4]oxazino[2,3,4-ij]quinoline-6-carboxylic acid]
MIC ([1]; 8198, read-out: MIC): ≤ 0.03 µg/mL | MIC [1]; 12048: 0.03 to 0.125 µg/mL (≈ 0.0705 to 0.294 µM) | MIC ([1]; 13736, read-out: MIC): 0.06 µg/mL (≈ 0.141 µM) | MIC [1]; 13737: 0.125 µg/mL (≈ 0.294 µM) | MIC [1]; 13738: 0.125 µg/mL (≈ 0.294 µM) | MIC [1]; 80661: 0.06 to 0.125 µg/mL (≈ 0.141 to 0.294 µM) | MIC [1]; 81017: 0.125 µg/mL (≈ 0.294 µM) | MIC ([1]; 82434, read-out: MIC): 0.06 µg/mL (≈ 0.141 µM) | MIC ([1]; 82896, read-out: MIC): 0.06 µg/mL (≈ 0.141 µM) | MIC [1]; 83581: 0.06 to 0.125 µg/mL (≈ 0.141 to 0.294 µM) | MIC ([1]; 84285, read-out: MIC): 0.06 µg/mL (≈ 0.141 µM) | MIC [1]; 86519: 0.125 µg/mL (≈ 0.294 µM) | MIC range ([1]; n = 12 isolates): 0.06 to 0.125 µg/mL | MIC [2]; 6175: 0.125 µg/mL (≈ 0.294 µM) | MIC ([2]; 8017, read-out: MIC): 0.5 µg/mL (≈ 1.18 µM) | MIC [2]; 8181: 0.125 µg/mL (≈ 0.294 µM) | MIC [2]; 8183: 0.125 µg/mL (≈ 0.294 µM) | MIC ([2]; 10069, read-out: MIC): ≤ 0.03 µg/mL | MIC [2]; 10182: 0.125 µg/mL (≈ 0.294 µM) | MIC ([2]; 11080, read-out: MIC): 0.25 µg/mL (≈ 0.588 µM) | MIC [2]; 83190: 0.125 µg/mL (≈ 0.294 µM) | MIC [2]; 83740: 0.125 µg/mL (≈ 0.294 µM) | MIC [2]; 84115: 0.125 to 0.5 µg/mL (≈ 0.294 to 1.18 µM) | MIC range ([2]; n = 10): 0.06 to 0.5 µg/mL | % Inhibition [3]: -16.7063% | % Inhibition [4]: -4.708% | inhibition at 10 µM [5]: -15.4% | % Inhibition [6]: -5.236% | % Inhibition [7]: 5.564% | % Inhibition [8]: 2.273% | % Inhibition [9]: -9.13% | % Inhibition [10]: 23.6539% | % Inhibition [11]: -12.5662% | inhibition at 10 µM [12]: 2.16% | % Inhibition [13]: 27.3513% and 27.4% | % Inhibition [14]: 4.241% | inhibition, all other / remaining targets [15]: < 25% | inhibition at 10 µM [16, 18]: 25.2% | inhibition at 10 µM [16, 19]: 6.5% | bacterial counts in thigh [17]: 3.19 log10 CFU/g | reduction relative to vehicle ([17]; 50 mg/kg): 5.17 log10 CFU/g and > 4 log10 CFU/g

Cc1cc(C)nc(N[C@@H]2CCN(c3c(F)cc4c(=O)c(C(=O)O)cn5c4c3OC[C@@H]5C)C2)n1 [Compound 50, (S)-10-((R)-3-((4,6-Dimethylpyrimidin-2-yl)amino)pyrrolidin-1-yl)-9-fluoro-3-methyl-7-oxo-2,3-dihydro-7H-[1,4]oxazino[2,3,4-ij]quinoline-6-carboxylic acid]
MIC ([1]; 8198, read-out: MIC): ≤ 0.03 µg/mL | MIC ([1]; 12048, read-out: MIC): ≤ 0.03 µg/mL | MIC ([1]; 13736, read-out: MIC): ≤ 0.03 µg/mL | MIC [1]; 13737: 0.125 µg/mL (≈ 0.276 µM) | MIC [1]; 13738: 0.125 µg/mL (≈ 0.276 µM) | MIC ([1]; 80661, read-out: MIC): ≤ 0.03 µg/mL | MIC ([1]; 81017, read-out: MIC): 0.06 µg/mL (≈ 0.132 µM) | MIC ([1]; 82434, read-out: MIC): ≤ 0.03 µg/mL | MIC ([1]; 82896, read-out: MIC): ≤ 0.03 µg/mL | MIC ([1]; 83581, read-out: MIC): ≤ 0.03 µg/mL | MIC ([1]; 84285, read-out: MIC): ≤ 0.03 µg/mL | MIC ([1]; 86519, read-out: MIC): 0.06 µg/mL (≈ 0.132 µM) | MIC ([1]; ATCC14289, ATCC 14289): 0.125 µg/mL (≈ 0.276 µM) | MIC ([1]; ATCC19615, ATCC 19615): 0.125 µg/mL (≈ 0.276 µM) | MIC ([1]; n = 12 isolates, read-out: modal MIC): ≤ 0.03 µg/mL | MIC range ([1]; n = 12 isolates): ≤ 0.03 to 0.125 µg/mL | MIC ([2]; 6175, read-out: MIC): 0.06 µg/mL (≈ 0.132 µM) | MIC ([2]; 8017, read-out: MIC): 0.25 µg/mL (≈ 0.551 µM) | MIC ([2]; 8181, read-out: MIC): 0.06 µg/mL (≈ 0.132 µM) | MIC [2]; 8183: 0.125 µg/mL (≈ 0.276 µM) | MIC ([2]; 10069, read-out: MIC): ≤ 0.03 µg/mL | MIC ([2]; 10182, read-out: MIC): 0.06 µg/mL (≈ 0.132 µM) | MIC [2]; 11080: 0.125 µg/mL (≈ 0.276 µM) | MIC ([2]; 83190, read-out: MIC): 0.06 µg/mL (≈ 0.132 µM) | MIC ([2]; 83740, read-out: MIC): 0.06 µg/mL (≈ 0.132 µM) | MIC [2]; 84115: 0.125 µg/mL (≈ 0.276 µM) | MIC ([2]; ATCC12386, ATCC 12386): 0.25 µg/mL (≈ 0.551 µM) | MIC ([2]; n = 10, read-out: modal MIC): 0.06 µg/mL (≈ 0.132 µM) | inhibition at 10 µM [3]: 10.2% | inhibition at 10 µM [4]: 7.02% | inhibition at 10 µM [5]: -5.66% | inhibition at 10 µM [6]: 0.266% | inhibition at 10 µM [7]: 5.57% | inhibition at 10 µM [8]: 3.56% | inhibition at 10 µM [9]: 15% | % Inhibition [10]: -10.2569% | inhibition at 10 µM [11]: 9.53% | inhibition at 10 µM [12]: 1.77% | inhibition at 10 µM [13]: 20.1% | % Inhibition [14]: 3.169% | inhibition, all other / remaining targets [15]: < 25% | CYP3A inhibition ([16]; midazolam substrate, 10 μM): 10.5% | inhibition at 10 µM [16, 18]: 10.5% | inhibition at 10 µM [16, 19]: 6.32%

C[C@H]1COc2c(N3CCN(C)CC3)c(F)cc3c(=O)c(C(=O)O)cn1c23 [Levofloxacin, (S)-9-Fluoro-3-methyl-10-(4-methylpiperazin-1-yl)-7-oxo-2,3-dihydro-7H-[1,4]oxazino[2,3,4-ij]quinoline-6-carboxylic acid, reference compound]
bacterial counts in thigh [17]: 3.28 log10 CFU/g
